The values below are quoted from earlier work in patent US11946086B2, “Gene involved in synthesis of cyclic peptide compound, method for producing cyclic peptide compound using the same, and transformant comprising the same” (NATIONAL INSTITUTE OF ADVANCED INDUSTRIAL SCIENCE AND …, priority 2017, dated 2024).

The data set has as its system plant pathogenic bacteria, and, in particular, fungi. The conditions noted are these: against plant pathogenic bacteria.

Non-standard residues stand in square brackets, D forms with d. Residues, ends and D or L forms follow the SMILES beside them. NMeI = CC[CH](C)[CH](NC)C(=O)O; NMeD = CN[CH](CC(=O)O)C(=O)O; NMeV = CN[CH](C(=O)O)C(C)C; Pip = O=C(O)[CH]1CCCCN1; Lac = C[CH](O)C(=O)O

With `CCC(C)C1C(=O)NCC(=O)N(C)C(C(C)C)C(=O)NC(Cc2ccc(OC)cc2)C(=O)OC(C)C(=O)N2CCCCC2C(=O)N(C)C(C(C)C)C(=O)NC(C(C)C)C(=O)N(C)C(CC(=O)O)C(=O)N(C)C(C(C)C)C(=O)N1C` (stereo not shown) [KK-1, Tyrosine, N-[N-[N-[N-[N-[N-[N-[N-[[1-(2-hydroxy-1-oxopropyl)-2-piperidinyl]carbonyl]-N-methylvalyl]valyl]-N-methyl-a-aspartyl]-N-methylvalyl]-N-methylisoleucyl]glycyl]-N-methylvalyl]-O-methyl-, d2-lactone (9CI)] (cyclo(G[NMeV]Y(Me)[Lac][Pip][NMeV]V[NMeD][NMeV][NMeI]); configuration not given here), the bactericidal activity entry was “potent bactericidal activity”.
